Measured values published in ChEMBL document CHEMBL1133008, “AMP deaminase inhibitors. 2. Initial discovery of a non-nucleotide transition-state inhibitor series” (J Med Chem, 2000).

Target: T1, Adenosine deaminase (Bos taurus, UniProt P56658)
T1 sequence (P56658 whole entry): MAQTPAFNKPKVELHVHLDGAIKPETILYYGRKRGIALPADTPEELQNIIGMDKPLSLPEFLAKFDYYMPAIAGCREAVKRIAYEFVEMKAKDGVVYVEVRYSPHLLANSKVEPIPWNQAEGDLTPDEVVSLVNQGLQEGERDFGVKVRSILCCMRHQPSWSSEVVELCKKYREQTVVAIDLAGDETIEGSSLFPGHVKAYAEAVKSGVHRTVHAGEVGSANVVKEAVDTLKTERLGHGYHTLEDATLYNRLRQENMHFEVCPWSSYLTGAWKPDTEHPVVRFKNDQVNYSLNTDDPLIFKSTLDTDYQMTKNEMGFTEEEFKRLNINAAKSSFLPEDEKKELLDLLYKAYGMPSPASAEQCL
Test: Evaluated for the inhibition of calf intestinal Adenosine deaminase (ADA)

SMILES	Ki [µM]
O=C(O)C(CCCCn1cnc2c1NC=NCC2O)(c1ccccc1)c1ccccc1 (centres undefined)	> 7.5
OCCCCCCn1cnc2c1N=CNCC2O (centres undefined)	3.6
CCOC(=O)CCCCCn1cnc2c1NC=NCC2O (centres undefined)	3
CCOC(=O)C(CCCCn1cnc2c1NC=NCC2O)c1ccccc1 (centres undefined)	> 7.5
O=C(O)C(CCCCn1cnc2c1N=CNCC2O)c1ccccc1 (centres undefined)	> 7.5
OCCCn1cnc2c1N=CNCC2O (centres undefined)	> 7.5
CCCn1cnc2c1NC=NCC2O (centres undefined)	> 20
O=C(O)C(CCCCn1cnc2c1NC=NCC2O)Cc1ccc(Br)cc1 (centres undefined)	> 7.5
CCOC(=O)C(CCCCn1cnc2c1NC=NCC2O)Cc1cccc(Br)c1 (centres undefined)	> 7.5
CCCCn1cnc2c1NC=NCC2O (centres undefined)	17
O=C(O)CCCOCn1cnc2c1NC=NCC2O (centres undefined)	> 500
CCCCCCCCn1cnc2c1N=CNCC2O (centres undefined)	0.45
CC(C)(CCCCn1cnc2c1NC=NCC2O)C(=O)O (centres undefined)	> 7.5
N#CCCCn1cnc2c1N=CNCC2O (centres undefined)	> 7.5
CCn1cnc2c1NC=NCC2O (centres undefined)	28
OCCCCCn1cnc2c1NC=NCC2O (centres undefined)	4.7
O=P(O)(O)CCCCCCn1cnc2c1N=CNCC2O (centres undefined)	> 7.5
CCOC(=O)C(CCCCn1cnc2c1NC=NCC2O)c1cccc(Br)c1 (centres undefined)	> 7.5
N#CCCCCn1cnc2c1N=CNCC2O (centres undefined)	14
O=P(O)(O)CCCCCn1cnc2c1NC=NCC2O (centres undefined)	> 500
O=C(O)C(CCCCn1cnc2c1NC=NCC2O)Cc1ccccc1 (centres undefined)	> 1000
O=C(O)C(CCCCn1cnc2c1N=CNCC2O)Cc1ccccc1Br (centres undefined)	> 7.5

SMILES	Ki [µM]
OC1CN=CNc2c1ncn2CCCCCc1nnn[nH]1 (centres undefined)	> 7.5
O=C(O)CCCCn1cnc2c1NC=NCC2O (centres undefined)	> 7.5
COP(=O)(O)CCCCCCn1cnc2c1NC=NCC2O (centres undefined)	> 500
OCCn1cnc2c1NC=NCC2O (centres undefined)	> 7.5
N#CCCCCCCn1cnc2c1NC=NCC2O (centres undefined)	1
NC(=O)CCCCCn1cnc2c1NC=NCC2O (centres undefined)	5.9
O=C(O)CCCCCn1cnc2c1N=CNCC2O (centres undefined)	280
O=C(O)CCCCCCn1cnc2c1N=CNCC2O (centres undefined)	250
O=C(O)C(CCCCn1cnc2c1NC=NCC2O)Cc1ccc(Cl)cc1 (centres undefined)	> 7.5
COC(=O)CCCCn1cnc2c1N=CNCC2O (centres undefined)	3.5
OCCCCn1cnc2c1N=CNCC2O (centres undefined)	6.3
OC1CN=CNc2c1ncn2Cc1ccccc1 (centres undefined)	6
CCOC(=O)C(C)(CCCCn1cnc2c1NC=NCC2O)Cc1cccc(Br)c1 (centres undefined)	> 7.5
O=C(O)C1(CCCCn2cnc3c2N=CNCC3O)Cc2ccccc2C1 (centres undefined)	> 7.5
O=C(O)C(CCCCn1cnc2c1N=CNCC2O)c1cccc(Br)c1 (centres undefined)	> 7.5
O=C(O)C(CCCCn1cnc2c1NC=NCC2O)Cc1cccc(Br)c1 (centres undefined)	> 7.5
O=C(O)CCCCCCCn1cnc2c1NC=NCC2O (centres undefined)	> 7.5
COC(=O)CCCCCCCn1cnc2c1N=CNCC2O (centres undefined)	0.95
CC(C)CC(CCCCn1cnc2c1NC=NCC2O)(CC(C)C)C(=O)O (centres undefined)	120
O=C(O)C(CCCCn1cnc2c1N=CNCC2O)Cc1cccc(Cl)c1 (centres undefined)	> 7.5
CC(CCCCn1cnc2c1N=CNCC2O)(Cc1cccc(Br)c1)C(=O)O (stereo in doubt; 7v)	> 7.5
CC(CCCCn1cnc2c1N=CNCC2O)(Cc1cccc(Br)c1)C(=O)O (stereo in doubt; 7w)	> 7.5
